Experimental data reported in patent US20210045385A1, “PYRIDAZINONE-SUBSTITUTED KETOXIMES AS HERBICIDES” (FMC Corporation, priority 2018, published 2021).

Assays:
Type in all cases: in vivo
[1] = test system: ragweed (common ragweed, Ambrosia artemisiifolia); experiment: Test C preemergence, visual plant response rating
Procedure, shortened: (§1)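 Compounds in a non-phytotoxic solvent with surfactant were applied as a directed soil spray preemergence or to 2–10 cm, one- to two-leaf plants postemergence, in loam–sand soil. After about 10 d in a greenhouse, injury was visually rated against untreated controls on a 0–100 scale (100 = complete control).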

kochia (Bassia scoparia) [2] = experiment: Test C preemergence, visual plant response rating
Procedure, shortened: as §1

[3] = test system: pigweed (Amaranthus retroflexus); experiment: Test C preemergence, visual plant response rating
Procedure, shortened: as §1

[4] = test system: foxtail, giant (giant foxtail, Setaria faberi); experiment: Test C preemergence, visual plant response rating
Procedure, shortened: as §1

[5] = test system: Italian ryegrass (Lolium mutiflorum); experiment: Test C preemergence, visual plant response rating
Procedure, shortened: as §1

[6] = test system: barnyardgrass (Echinochloa crus-galli); experiment: Test C preemergence, visual plant response rating
Procedure, shortened: as §1

[7] = test system: duck salad (Heteranthera limosa); experiment: Test D flooded paddy test, visual plant response rating; settings: 250 g ai/ha, scale 0 to 100 (0 no effect, 100 complete control), 13 to 15 d
Procedure, shortened: (§2)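 Plants were grown to the 2-leaf stage, pots flooded to 3 cm above soil, and compound applied directly into the paddy water, with the depth held throughout. After 13 to 15 d in a greenhouse, response was rated visually against untreated controls on a 0–100 scale (0 no effect, 100 complete control).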

[8] = test system: sedge umbrella (small-flower umbrella sedge, Cyperus difformis); experiment: as above; settings: 250 g ai/ha, scale 0 to 100 (0 no effect, 100 complete control), 13 to 15 d
Procedure, shortened: as §2

rice (Oryza sativa) = experiment: as above; settings: 250 g ai/ha, scale 0 to 100 (0 no effect, 100 complete control), 13 to 15 d
Procedure, shortened: as §2

[9] = test system: barnyardgrass (Echinochloa crus-galli); experiment: as above; settings: 250 g ai/ha, scale 0 to 100 (0 no effect, 100 complete control), 13 to 15 d
Procedure, shortened: as §2

[10] = test system: wheat (Triticum aestivum); experiment: Test C postemergence, visual plant response rating
Procedure, shortened: as §1

[11] = test system: ragweed (common ragweed, Ambrosia artemisiifolia); experiment: Test C postemergence, visual plant response rating
Procedure, shortened: as §1

kochia (Bassia scoparia) [12] = experiment: Test C postemergence, visual plant response rating
Procedure, shortened: as §1

[13] = test system: pigweed (Amaranthus retroflexus); experiment: Test C postemergence, visual plant response rating
Procedure, shortened: as §1

[14] = test system: galium (catchweed bedstraw, Galium aparine); experiment: Test C postemergence, visual plant response rating
Procedure, shortened: as §1

[15] = test system: foxtail, giant (giant foxtail, Setaria faberi); experiment: Test C postemergence, visual plant response rating
Procedure, shortened: as §1

[16] = test system: Italian ryegrass (Lolium mutiflorum); experiment: Test C postemergence, visual plant response rating
Procedure, shortened: as §1

[17] = test system: blackgrass (Alopecurus myosuroides); experiment: Test C postemergence, visual plant response rating
Procedure, shortened: as §1

corn (Zea mays) = experiment: Test C postemergence, visual plant response rating
Procedure, shortened: as §1

[18] = test system: barnyardgrass (Echinochloa crus-galli); experiment: Test C postemergence, visual plant response rating
Procedure, shortened: as §1

[19] = Test C, 31 g ai/ha, 0 is no effect, 100 is complete control
[20] = Test C, postemergence, 125 g ai/ha
[21] = Test C, postemergence, 31 g ai/ha
[22] = Test C, 125 g ai/ha, 0 is no effect, 100 is complete control

## C#CCO/N=C(/c1cc(C)cc(Cl)c1)c1c(O)c(C)nn(C)c1=O [Compound 154]
[1]; 125 g ai/ha
  Ragweed plant response rating (0 to 100 scale): 80
[1]; [19]
  Ragweed plant response rating (0 to 100 scale): 40
Kochia (Bassia scoparia) [2]; 125 g ai/ha
  Kochia plant response rating (0 to 100 scale): 90
Kochia (Bassia scoparia) [2]; [19]
  Kochia plant response rating (0 to 100 scale): 0
[3]; 125 g ai/ha
  Pigweed plant response rating (0 to 100 scale): 90
[3]; [19]
  Pigweed plant response rating (0 to 100 scale): 40
[4]; 125 g ai/ha
  Foxtail, Giant plant response rating (0 to 100 scale): 100
[4]; [19]
  Foxtail, Giant plant response rating (0 to 100 scale): 60
[5]; 125 g ai/ha
  Ryegrass, Italian plant response rating (0 to 100 scale): 100
[5]; [19]
  Ryegrass, Italian plant response rating (0 to 100 scale): 40
[6]; 125 g ai/ha
  Barnyardgrass plant response rating (0 to 100 scale): 90
[6]; [19]
  Barnyardgrass plant response rating (0 to 100 scale): 40
[7]
  Plant response rating, Ducksalad (Flood): 0
[8]
  Plant response rating, Sedge, Umbrella (Flood): 0
Rice (Oryza sativa)
  Plant response rating, Rice (Flood): 0
[9]
  Plant response rating, Barnyardgrass (Flood): 0
[10]; Postemergence, 31 g ai/ha
  Wheat plant response rating (0 to 100 scale): 30
[10]; [20]
  Wheat plant response rating (0 to 100 scale): 90
[11]; Postemergence, 31 g ai/ha
  Ragweed plant response rating (0 to 100 scale): 70
[11]; [20]
  Ragweed plant response rating (0 to 100 scale): 90
Kochia (Bassia scoparia) [12]; [21]
  Kochia plant response rating (0 to 100 scale): 60
Kochia (Bassia scoparia) [12]; [20]
  Kochia plant response rating (0 to 100 scale): 70
[13]; Postemergence, 31 g ai/ha
  Pigweed plant response rating (0 to 100 scale): 30
[13]; [20]
  Pigweed plant response rating (0 to 100 scale): 100
[14]; [21]
  Galium plant response rating (0 to 100 scale): 90
[14]; [20]
  Galium plant response rating (0 to 100 scale): 100
[15]; [21]
  Foxtail, Giant plant response rating (0 to 100 scale): 80
[15]; [20]
  Foxtail, Giant plant response rating (0 to 100 scale): 90
[16]; Postemergence, 31 g ai/ha
  Ryegrass, Italian plant response rating (0 to 100 scale): 70
[16]; [20]
  Ryegrass, Italian plant response rating (0 to 100 scale): 100
[17]; [21]
  Blackgrass plant response rating (0 to 100 scale): 50
[17]; [20]
  Blackgrass plant response rating (0 to 100 scale): 90
Corn (Zea mays); [21]
  Corn plant response rating (0 to 100 scale): 0
Corn (Zea mays); [20]
  Corn plant response rating (0 to 100 scale): 40
[18]; [21]
  Barnyardgrass plant response rating (0 to 100 scale): 50
[18]; [20]
  Barnyardgrass plant response rating (0 to 100 scale): 90

## CCO/N=C(\c1c(O)cnn(C)c1=O)c1ccc(F)c2ccccc12 [Compound 269]
[1]; [19]
  Ragweed plant response rating (0 to 100 scale): 0
[1]; [22]
  Ragweed plant response rating (0 to 100 scale): 0
Kochia (Bassia scoparia) [2]; [19]
  Kochia plant response rating (0 to 100 scale): 0
Kochia (Bassia scoparia) [2]; [22]
  Kochia plant response rating (0 to 100 scale): 0
[3]; [19]
  Pigweed plant response rating (0 to 100 scale): 0
[3]; [22]
  Pigweed plant response rating (0 to 100 scale): 10
[4]; [19]
  Foxtail, Giant plant response rating (0 to 100 scale): 0
[4]; [22]
  Foxtail, Giant plant response rating (0 to 100 scale): 30
[5]; [19]
  Ryegrass, Italian plant response rating (0 to 100 scale): 0
[5]; [22]
  Ryegrass, Italian plant response rating (0 to 100 scale): 10
[6]; [19]
  Barnyardgrass plant response rating (0 to 100 scale): 0
[6]; [22]
  Barnyardgrass plant response rating (0 to 100 scale): 0
[7]
  Plant response rating, Ducksalad (Flood): 0
[8]
  Plant response rating, Sedge, Umbrella (Flood): 0
Rice (Oryza sativa)
  Plant response rating, Rice (Flood): 0
[9]
  Plant response rating, Barnyardgrass (Flood): 0
[10]; Postemergence, 31 g ai/ha
  Wheat plant response rating (0 to 100 scale): 0
[10]; [20]
  Wheat plant response rating (0 to 100 scale): 0
[11]; Postemergence, 31 g ai/ha
  Ragweed plant response rating (0 to 100 scale): 10
[11]; [20]
  Ragweed plant response rating (0 to 100 scale): 40
Kochia (Bassia scoparia) [12]; Postemergence, 31 g ai/ha
  Kochia plant response rating (0 to 100 scale): 0
Kochia (Bassia scoparia) [12]; [20]
  Kochia plant response rating (0 to 100 scale): 30
[13]; Postemergence, 31 g ai/ha
  Pigweed plant response rating (0 to 100 scale): 50
[13]; [20]
  Pigweed plant response rating (0 to 100 scale): 60
[14]; Postemergence, 31 g ai/ha
  Galium plant response rating (0 to 100 scale): 50
[14]; [20]
  Galium plant response rating (0 to 100 scale): 80
[15]; Postemergence, 31 g ai/ha
  Foxtail, Giant plant response rating (0 to 100 scale): 10
[15]; [20]
  Foxtail, Giant plant response rating (0 to 100 scale): 40
[16]; Postemergence, 31 g ai/ha
  Ryegrass, Italian plant response rating (0 to 100 scale): 0
[16]; [20]
  Ryegrass, Italian plant response rating (0 to 100 scale): 60
[17]; Postemergence, 31 g ai/ha
  Blackgrass plant response rating (0 to 100 scale): 0
[17]; [20]
  Blackgrass plant response rating (0 to 100 scale): 30
Corn (Zea mays); Postemergence, 31 g ai/ha
  Corn plant response rating (0 to 100 scale): 0
Corn (Zea mays); [20]
  Corn plant response rating (0 to 100 scale): 20
[18]; Postemergence, 31 g ai/ha
  Barnyardgrass plant response rating (0 to 100 scale): 0
[18]; [20]
  Barnyardgrass plant response rating (0 to 100 scale): 0
